One block for each compound: values may come before it.
Columns and labels:
Assay type in all cases: functional
Pseudomonas putida = assay: Antibacterial activity against Pseudomonas putida NBRC 14164 by agar-dilution method
Escherichia coli = assay: Antibacterial activity against Escherichia coli MG1655 by agar-dilution method; details: K-12 substr. MG1655
Staphylococcus aureus = assay: Antibacterial activity against Staphylococcus aureus subsp. aureus NBRC 15035 by agar-dilution method
Bacillus subtilis = assay: Antibacterial activity against Bacillus subtilis 168 by agar-dilution method; details: subsp. subtilis str. 168

- MIC (Pseudomonas putida): > 100 µg/mL
- MIC (Escherichia coli): 100 µg/mL
- MIC (Staphylococcus aureus): 0.78 µg/mL
- MIC (Bacillus subtilis): 0.78 µg/mL
Structure (SMILES): CCCCCC#CC[n+]1ccn(CCCCCCCCCCCCCC)c1C.[I-]

- MIC (Pseudomonas putida): > 100 µg/mL
- MIC (Escherichia coli): > 100 µg/mL
- MIC (Staphylococcus aureus): 100 µg/mL
- MIC (Bacillus subtilis): > 100 µg/mL
Structure (SMILES): C#CC[n+]1ccn(CCCC[Si](C)(C)C)c1.[I-]

- MIC (Pseudomonas putida): 100 µg/mL
- MIC (Escherichia coli): 50 µg/mL
- MIC (Staphylococcus aureus): 0.39 µg/mL
- MIC (Bacillus subtilis): 0.39 µg/mL
Structure (SMILES): CCCCCc1ccc(-[n+]2ccn(CCCC[Si](C)(C)C)c2)cc1.[I-]

- MIC (Pseudomonas putida): 50 µg/mL
- MIC (Escherichia coli): 3.13 µg/mL
- MIC (Staphylococcus aureus): 0.39 µg/mL
- MIC (Bacillus subtilis): 0.39 µg/mL
Structure (SMILES): CCCCCC#CC[n+]1ccn(CCCCCCCCCCC)c1C.[I-]

- MIC (Pseudomonas putida): 100 µg/mL
- MIC (Escherichia coli): 50 µg/mL
- MIC (Staphylococcus aureus): 1.56 µg/mL
- MIC (Bacillus subtilis): 1.56 µg/mL
Structure (SMILES): CCCCCC#CC[N+]1(CCCCC[Si](C)(C)C)CCCCC1.[I-]

- MIC (Pseudomonas putida): > 100 µg/mL
- MIC (Escherichia coli): 100 µg/mL
- MIC (Staphylococcus aureus): 0.78 µg/mL
- MIC (Bacillus subtilis): 0.39 µg/mL
Structure (SMILES): CCCCCC#CC[n+]1ccn(CCCCCCCCC[Si](C)(C)C)c1.[I-]

- MIC (Pseudomonas putida): 50 µg/mL
- MIC (Escherichia coli): 12.5 µg/mL
- MIC (Staphylococcus aureus): 0.39 µg/mL
- MIC (Bacillus subtilis): 0.39 µg/mL
Structure (SMILES): CCCCCC#CC[n+]1ccn(CCCCC[Si](C)(C)C)c1C.[I-]

- MIC (Pseudomonas putida): 100 µg/mL
- MIC (Escherichia coli): 12.5 µg/mL
- MIC (Staphylococcus aureus): 0.39 µg/mL
- MIC (Bacillus subtilis): 0.39 µg/mL
Structure (SMILES): CCCCCC#CC[n+]1ccn(CCCCCCC[Si](C)(C)C)c1C.[I-]

- MIC (Pseudomonas putida): 100 µg/mL
- MIC (Escherichia coli): 100 µg/mL
- MIC (Staphylococcus aureus): 0.78 µg/mL
- MIC (Bacillus subtilis): 0.39 µg/mL
Structure (SMILES): CCCCCC#CC[n+]1ccn(CCCCCCCCC[Si](C)(C)C)c1C.[I-]

- MIC (Pseudomonas putida): > 100 µg/mL
- MIC (Escherichia coli): > 100 µg/mL
- MIC (Staphylococcus aureus): 1.56 µg/mL
- MIC (Bacillus subtilis): 1.56 µg/mL
Structure (SMILES): CCCCCC#CC[n+]1ccn(CCCCCCCCCCC[Si](C)(C)C)c1C.[I-]

- MIC (Pseudomonas putida): > 100 µg/mL
- MIC (Escherichia coli): 50 µg/mL
- MIC (Staphylococcus aureus): 3.13 µg/mL
- MIC (Bacillus subtilis): 1.56 µg/mL
Structure (SMILES): CCCCCCCC[n+]1ccn(CCCC[Si](C)(C)C)c1.[I-]

- MIC (Pseudomonas putida): > 100 µg/mL
- MIC (Escherichia coli): > 100 µg/mL
- MIC (Staphylococcus aureus): 0.78 µg/mL
- MIC (Bacillus subtilis): 0.78 µg/mL
Structure (SMILES): C[Si](C)(C)CCCCCn1cc[n+](Cc2ccc(CC[Si](C)(C)C)cc2)c1.[I-]

- MIC (Pseudomonas putida): > 100 µg/mL
- MIC (Escherichia coli): > 100 µg/mL
- MIC (Staphylococcus aureus): 1.56 µg/mL
- MIC (Bacillus subtilis): 1.56 µg/mL
Structure (SMILES): C[Si](C)(C)CCCCCCn1cc[n+](Cc2ccc(CC[Si](C)(C)C)cc2)c1.[I-]

- MIC (Pseudomonas putida): > 100 µg/mL
- MIC (Escherichia coli): > 100 µg/mL
- MIC (Staphylococcus aureus): 1.56 µg/mL
- MIC (Bacillus subtilis): 1.56 µg/mL
Structure (SMILES): CCCCCC#CC[n+]1ccn(CCCCCCCCCCCCCCCC)c1C.[I-]

- MIC (Pseudomonas putida): 100 µg/mL
- MIC (Escherichia coli): > 100 µg/mL
- MIC (Staphylococcus aureus): 0.39 µg/mL
- MIC (Bacillus subtilis): 0.39 µg/mL
Structure (SMILES): C[Si](C)(C)CCCCn1cc[n+](Cc2ccc(CC[Si](C)(C)C)cc2)c1.[I-]

- MIC (Pseudomonas putida): 50 µg/mL
- MIC (Escherichia coli): 12.5 µg/mL
- MIC (Staphylococcus aureus): 0.39 µg/mL
- MIC (Bacillus subtilis): 0.39 µg/mL
Structure (SMILES): CCCCCC#CC[n+]1ccn(CCCCCC[Si](C)(C)C)c1C.[I-]

- MIC (Pseudomonas putida): 100 µg/mL
- MIC (Escherichia coli): 25 µg/mL
- MIC (Staphylococcus aureus): 0.78 µg/mL
- MIC (Bacillus subtilis): 0.39 µg/mL
Structure (SMILES): CCCCCC#CC[n+]1ccn(CCCCC[Si](C)(C)C)c1.[I-]

The next lines start with the compound.

Structure (SMILES): C[Si](C)(C)CCCCCCCn1cc[n+](Cc2ccc(CC[Si](C)(C)C)cc2)c1.[I-]
- MIC (Pseudomonas putida): > 100 µg/mL
- MIC (Escherichia coli): > 100 µg/mL
- MIC (Staphylococcus aureus): 1.56 µg/mL
- MIC (Bacillus subtilis): 1.56 µg/mL

Structure (SMILES): CCCCCC#CC[n+]1ccn(CCCCCCCCCCCC)c1C.[I-]
- MIC (Pseudomonas putida): 50 µg/mL
- MIC (Escherichia coli): 6.25 µg/mL
- MIC (Staphylococcus aureus): 0.39 µg/mL
- MIC (Bacillus subtilis): 0.39 µg/mL

Structure (SMILES): CCCCCC#CC[N+]1(C)CCCC1.[I-]
- MIC (Pseudomonas putida): > 50 µg/mL
- MIC (Escherichia coli): > 50 µg/mL
- MIC (Staphylococcus aureus): > 50 µg/mL
- MIC (Bacillus subtilis): > 50 µg/mL

Structure (SMILES): CCCCCC#CC[N+]1(C)CCCCC1.[I-]
- MIC (Pseudomonas putida): > 50 µg/mL
- MIC (Escherichia coli): > 50 µg/mL
- MIC (Staphylococcus aureus): > 50 µg/mL
- MIC (Bacillus subtilis): > 50 µg/mL

Structure (SMILES): C[Si](C)(C)CCCCn1cc[n+](-c2ccc(-c3ccccc3)cc2)c1.[I-]
- MIC (Pseudomonas putida): 100 µg/mL
- MIC (Escherichia coli): 100 µg/mL
- MIC (Staphylococcus aureus): 0.39 µg/mL
- MIC (Bacillus subtilis): 1.56 µg/mL

Structure (SMILES): C[Si](C)(C)CCCCCCCCCn1cc[n+](Cc2ccc(CC[Si](C)(C)C)cc2)c1.[I-]
- MIC (Pseudomonas putida): > 100 µg/mL
- MIC (Escherichia coli): > 100 µg/mL
- MIC (Staphylococcus aureus): > 6.25 µg/mL
- MIC (Bacillus subtilis): 6.25 µg/mL

Structure (SMILES): CCCCCCCCCCCCCCCC[n+]1ccn(Cc2ccccc2)c1C.[I-]
- MIC (Escherichia coli): 3.13 µg/mL
- MIC (Bacillus subtilis): 1.56 µg/mL

Structure (SMILES): CCCCCC#CC[n+]1ccn(CCCCCCCCCC)c1C.[I-]
- MIC (Pseudomonas putida): 50 µg/mL
- MIC (Escherichia coli): 3.13 µg/mL
- MIC (Staphylococcus aureus): 0.39 µg/mL
- MIC (Bacillus subtilis): 0.78 µg/mL

Structure (SMILES): CCCCCC#CC[n+]1ccn(CCCC[Si](C)(C)C)c1.[I-]
- MIC (Pseudomonas putida): 100 µg/mL
- MIC (Escherichia coli): 50 µg/mL
- MIC (Staphylococcus aureus): 3.13 µg/mL
- MIC (Bacillus subtilis): 1.56 µg/mL

Structure (SMILES): CCCCCC#CC[n+]1ccn(CCCCCCC[Si](C)(C)C)c1.[I-]
- MIC (Pseudomonas putida): 100 µg/mL
- MIC (Escherichia coli): 25 µg/mL
- MIC (Staphylococcus aureus): 0.78 µg/mL
- MIC (Bacillus subtilis): 0.39 µg/mL

Structure (SMILES): CCCCCC#CC[n+]1ccn(CCCCCCCCC)c1C.[I-]
- MIC (Pseudomonas putida): 50 µg/mL
- MIC (Escherichia coli): 12.5 µg/mL
- MIC (Staphylococcus aureus): 0.78 µg/mL
- MIC (Bacillus subtilis): 0.78 µg/mL

Structure (SMILES): CCCCCC#CC[N+]1(CCCCC[Si](C)(C)C)CCCC1.[I-]
- MIC (Pseudomonas putida): > 50 µg/mL
- MIC (Escherichia coli): > 50 µg/mL
- MIC (Staphylococcus aureus): 1.56 µg/mL
- MIC (Bacillus subtilis): 1.56 µg/mL

Structure (SMILES): CCCCCC#CC[n+]1ccn(CCCC[Si](C)(C)C)c1C.[I-]
- MIC (Pseudomonas putida): 100 µg/mL
- MIC (Escherichia coli): 50 µg/mL
- MIC (Staphylococcus aureus): 1.56 µg/mL
- MIC (Bacillus subtilis): 1.56 µg/mL

Structure (SMILES): CCCCCC#CC[n+]1ccn(CCCCCCCCCCCC)c1.[I-]
- MIC (Pseudomonas putida): 50 µg/mL
- MIC (Escherichia coli): 25 µg/mL
- MIC (Staphylococcus aureus): 0.39 µg/mL
- MIC (Bacillus subtilis): 0.39 µg/mL

From ChEMBL document CHEMBL1681749, “Antibacterial activities of imidazolium, pyrrolidinium and piperidinium salts” (2011)
